Biological target: T1, nAChR α4/β2 (Homo sapiens, UniProt P17787+P43681)
T1 construct: host or cells: HEK293 cells, transient transfection
Experiment: nAChR α4/β2 positive allosteric modulator assay (FLIPR)
Format: cell-based
Conditions: with 10 μM Ach (= 0%), 10 μM Ach + epibatidine = 100%
Procedure: The following three (3) channels were evaluated: • 1. nAChR α3/β4 (encoded by the human CHRNA3 and CHRNB4 gene and stably expressed in CHO cells); • 2. nAChR α4/β2 (CHRNA4 and CHRNB2 gene and transiently expressed in HEK293 cells); and • 3. nAChR α7 (encoded by the human nicotinic α7 gene coexpressed in CHO cells with the chaperone RIC-3 encoded by the human RIC3 gene).
The ability of each test article to act as an agonist, a positive allosteric modulator or antagonist of three nAChR receptor channels was evaluated in the presence of 0.1 atropine. Both test articles were evaluated for responses on each nAChR channel at eight (8) concentrations: 0.3, 1, 3, 10, 30, 100, 300, and 1000 μM (n=4 for each concentration).
HEK293 or CHO cells were transiently or stably transfected with the appropriate human ion channel cDNAs. Stable transfectants were selected by coexpression with the antibiotic-resistance gene(s) incorporated into the expression plasmid(s). Selection pressure was maintained by including selection antibiotics in the culture medium. HEK293 cells were cultured in Dulbecco's Modified Eagle Medium/Nutrient Mixture F-12 (D-MEM/F-12) supplemented with 10% fetal bovine serum, 100 U/mL penicillin G sodium, 100 g/mL streptomycin sulfate and appropriate selection antibiotics. CHO cells were cultured in Ham's F-12 supplemented with 10% fetal bovine serum, 100 U/mL penicillin G sodium, 100 g/mL streptomycin sulfate and appropriate selection antibiotics.
For FLIPR TETRA™ assay, cells were plated in 384-well black wall, flat clear bottom microtiter plates (Type: BD Biocoat Poly-D-Lysine Multiwell Cell Culture Plate) at 20,000 to 30,000 cells per well (384-well plate). Cells were incubated at 37° C. overnight or until the cells reached a sufficient density in the wells (near confluent monolayer) to use in fluorescence assays. For α4β2 assay, cells were incubated at 27° C. for at least 7 hours before use.
Experiments were performed with either the FLIPR calcium sensitive dye kit (Fluo-8, ABDbioquest, for nAChR α3/β4 and nAChR α7) or FLIPR membrane potential kit (Molecular Devices, for nAChR α4/β2) according to the manufacturer's instructions. Briefly, cells were incubated with 201 dye for 30 min at 37° C. After dye loading period, for the agonist assay, 5 μl of the test, vehicle, or control articles at concentration of 5 times of final concentration were applied to the cells without stimulation. For the positive allosteric modulation (PAM) and antagonist assay, after test article application, the cells were stimulated with either low dose (for PAM) or high dose (for antagonist) of Ach.
The signal elicited in the presence of the positive control agonist and allosteric modulator epibatidine (10 μM Ach+3 μM epibatidine) was set to 100% and the signal from the agonist control (10 μM Ach) was set to 0%.

T1 sequence (P17787 26-502): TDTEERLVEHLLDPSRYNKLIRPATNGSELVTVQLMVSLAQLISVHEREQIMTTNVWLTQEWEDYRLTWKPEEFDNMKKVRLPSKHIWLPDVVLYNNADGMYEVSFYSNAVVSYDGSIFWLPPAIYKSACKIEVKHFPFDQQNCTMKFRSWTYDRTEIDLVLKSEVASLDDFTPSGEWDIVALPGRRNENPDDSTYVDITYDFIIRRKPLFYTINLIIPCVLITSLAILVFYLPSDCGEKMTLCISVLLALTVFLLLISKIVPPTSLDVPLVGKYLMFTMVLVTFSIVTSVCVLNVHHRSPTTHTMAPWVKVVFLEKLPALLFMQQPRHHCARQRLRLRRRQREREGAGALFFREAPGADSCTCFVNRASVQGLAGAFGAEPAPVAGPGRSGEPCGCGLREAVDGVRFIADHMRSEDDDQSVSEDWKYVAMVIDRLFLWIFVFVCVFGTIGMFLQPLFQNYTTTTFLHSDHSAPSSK
T1 sequence (P43681 29-627): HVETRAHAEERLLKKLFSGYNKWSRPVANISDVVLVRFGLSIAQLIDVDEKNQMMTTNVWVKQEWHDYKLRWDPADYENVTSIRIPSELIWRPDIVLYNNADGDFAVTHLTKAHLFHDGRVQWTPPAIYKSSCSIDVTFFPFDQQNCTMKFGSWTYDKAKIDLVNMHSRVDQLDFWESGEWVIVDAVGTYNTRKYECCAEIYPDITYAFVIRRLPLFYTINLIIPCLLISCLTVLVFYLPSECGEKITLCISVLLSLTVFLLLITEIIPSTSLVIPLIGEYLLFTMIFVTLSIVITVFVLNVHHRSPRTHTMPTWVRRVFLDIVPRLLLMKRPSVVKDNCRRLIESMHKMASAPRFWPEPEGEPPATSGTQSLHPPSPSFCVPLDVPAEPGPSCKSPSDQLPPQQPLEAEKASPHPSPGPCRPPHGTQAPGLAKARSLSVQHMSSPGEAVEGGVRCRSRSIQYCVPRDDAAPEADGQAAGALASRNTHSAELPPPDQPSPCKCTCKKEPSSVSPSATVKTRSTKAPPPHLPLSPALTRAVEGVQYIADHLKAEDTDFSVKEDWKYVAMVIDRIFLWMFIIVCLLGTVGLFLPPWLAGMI

## C1=CCC(c2cccnc2)NC1 (racemic) [Anatabine (racemate)]
Test conc 0.3 μM
  Normalized % Potentiation: −18.94%
Test conc 1 μM
  Normalized % Potentiation: −27.03%
Test conc 3 μM
  Normalized % Potentiation: −35.59%
Test conc 10 μM
  Normalized % Potentiation: −42.34%
Test conc 30 μM
  Normalized % Potentiation: −39.48%
Test conc 100 μM
  Normalized % Potentiation: −38.34%
Test conc 300 μM
  Normalized % Potentiation: −41.07%
Test conc 1000 μM
  Normalized % Potentiation: −35.30%
